As usually defined, the IC50 is the concentration that gives 50% inhibition. The low end stands for higher potency, the high end for lower potency.

Test [1] concerns Aβ production in HEK cells over-expressing Wild type β-APP. The test is described as follows: Aβ production inhibition, sandwich-ELISA in HEK cells which over-express Wild type β-APP (SE-WT). The following applies: for Emax: HEK293, maximum inhibition plateau, read-out: SE-WT max. inhibition %. The class given is cell-based, human. The method, then:
The effect of test substances on the inhibition of Aβ-amyloid production can be measured in the supernatant of cell cultures of β-APP expressed cells using ELISA tests or other quantitative determination methods for β-APP degradation products. Typically, 8×10^5 cells (e.g. HEK cells, which express recombinant human β-APP variants) are plated out in each well of a culture dish having 24 wells in growth media such as e.g. OPTIMEM (Gibco) and the test compound is then added. After an incubation period of 24 to 48 hours at 37° C. in a 10% CO2 atmosphere the supernatant is removed from the cell cultures and the β-APP degradation products (e.g. Aβ or β-[…]) are determined with the aid of ELISA (or sandwich ELISA) analysis or by means of quantitative immunoprecipitation (after metabolic radiolabelling of the cell proteins). Typically, 300 μl of the cell supernatant are tested according to the state of the art for ELISA tests in culture dishes having 96 wells. In the case of sandwich ELISA for Aβ, the binding antibody can be directed against the first 16 amino acids of Aβ-peptide (e.g. 6E10 Senetek, Maryland Heights, Mo.) and the detection antibody can be directed against amino acids 17-40 or 17-42 of Aβ and carries a detection system such as e.g. peroxidase. A simple ELISA test with an antibody, e.g. 22C11 (Boehringer Mannheim), can be used as the test for […]; the second antibody can be an anti-(mouse) Ig having a detection system, such as e.g. peroxidase. The peroxidase reaction can be carried out e.g. using a TMB substrate (BioRAD) and the measurements can be carried out at 650 nm using an ELISA reading apparatus. […] SE-SFAD signifies the Aβ production inhibition measured using sandwich-ELISA in HEK cells, SFAD signifies over-expressed mutated β-APP, and SE-WT signifies the Aβ production inhibition measured using sandwich-ELISA in HEK cells which over-express Wild type β-APP. The IC50 values are based on the respective plateau of maximum inhibition.
(An ELISA detects its analyte on a solid surface through an enzyme-linked reagent.)

Test [2] concerns Aβ production in HEK cells over-expressing mutated β-APP (SFAD). The test is described as follows: Aβ production inhibition, sandwich-ELISA in HEK cells, over-expressed mutated β-APP (SE-SFAD). It is filed as cell-based, human. The following applies: for IC50: based on the respective plateau of maximum inhibition; for Emax: read-out: SE-SFAD max. inhibition %. The essentials:
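HEK cells expressing recombinant human wild-type or mutated (SFAD) β-APP treated with compound for 24 to 48 hours at 37° C, 10% CO2. IC50 based on plateau of maximum inhibition.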

Setting [3] is: Homo sapiens, HEK293, based on the respective plateau of maximum inhibition.
The mark [4] stands for this setting: Homo sapiens, HEK293, HEK cells.
The mark [5] stands for this setting: Homo sapiens, HEK293, HEK cells, maximum inhibition plateau.

As to “8-(2-Benzoylamino-phenyl)-7-oxo-8-p-tolyl-7H-thieno[2,3-a]-quinolizine-10- carboxylic acid (2-methoxy-ethyl)-phenyl-amide [Compound 152]”, the IC50 in test [1] (based on the respective plateau of maximum inhibition) came out at 1.5 µM; in test [2] (HEK cells), 1.4 µM. For the same compound, in test [1] (maximum inhibition plateau), the “SE-WT max. inhibition %” value was 50-90%. Also, in test [2] (HEK cells, maximum inhibition plateau), the “SE-SFAD max. inhibition %” value is 100%.

As to `CCCOC1CN(C(=O)c2cc(-c3ccccc3)c(=O)n3ccc4ccsc4c23)C1` [Compound 1, 8-Phenyl-10-(3-propoxy-azetidin-1-carbonyl)-thieno[2,3-a]quinolizin-7-one], the concentration for half-maximal inhibition (IC50) in test [1] (setting [3]) was 4 µM; in test [2] (setting [4]), 2 µM. Also, the Emax in test [1] (Homo sapiens) came to 75%; in test [2] (setting [5]), 65%.

Take `O=C(OCCn1ccnc1)c1cc(-c2ccccc2)c(=O)n2ccc3ccsc3c12` [Compound 2, 2-Imidazol-1-yl-ethyl 7-oxo-8-phenyl-7H-thieno[2,3-a]quinolizine-10-carboxylate]: the IC50 in test [1] (setting [3]) was found to be 1.2 µM; in test [2] (setting [4]) it was 10 µM. The Emax in test [1] (Homo sapiens) is 70%; in test [2] (setting [5]) it was 50%.

For the compound `O=C1CC[C@H](COC(=O)c2cc(-c3ccccc3)c(=O)n3ccc4ccsc4c23)N1` [Compound 3, 5-Oxo-pyrrolidin-2-(R)-yl-methyl 7-oxo-8-phenyl-7H-thieno[2,3-a]-quinolizine-10-carboxylate], the IC50 was found to be 1 µM in test [1] (setting [3]) and 9.5 µM in test [2] (setting [4]). Also, the Emax in test [1] (Homo sapiens) amounted to 60%; in test [2] (setting [5]), 30%.

For `O=C1CC[C@@H](COC(=O)c2cc(-c3ccccc3)c(=O)n3ccc4ccsc4c23)N1` [Compound 4, 5-Oxo-pyrrolidin-2-(S)-yl-methyl 7-oxo-8-phenyl-7H-thieno[2,3-a]-quinolizine-10-carboxylate], the IC50 in test [1] (setting [3]) came to 5 µM; in test [2] (setting [4]), 10 µM. In addition, the Emax in test [1] (Homo sapiens) and in test [2] (setting [5]) was 25% throughout.

In the case of `O=C(OCCN1CCOC1=O)c1cc(-c2ccccc2)c(=O)n2ccc3ccsc3c12` [Compound 5, 2-(2-Oxo-oxazolidin-3-yl)-ethyl 7-oxo-8-phenyl-7H-thieno[2,3-a]-quinolizine-10-carboxylate], the IC50 worked out at 1.2 µM in test [1] (setting [3]) and 1 µM in test [2] (setting [4]). Besides, the results for the Emax in test [1] (Homo sapiens) and in test [2] (setting [5]) were 60% and 25%, respectively.

`O=C(OCc1ccccn1)c1cc(-c2ccccc2)c(=O)n2ccc3ccsc3c12` [Compound 6, Pyridin-2-yl-methyl 7-oxo-8-phenyl-7H-thieno[2,3-a]quinolizine-10-carboxylate]: the IC50 in test [1] (setting [3]) came out at 0.6 µM; in test [2] (setting [4]), 3 µM. Further, the Emax in test [1] (Homo sapiens) came out at 75%; in test [2] (setting [5]), 50%.

With `COCC1CC(OC)CN1C(=O)c1cc(-c2ccccc2)c(=O)n2ccc3ccsc3c12` (stereo not shown) [Compound 8, 10-(4-Methoxy-2-methoxymethyl-pyrrolidine-1-carbonyl)-8-phenylthieno[2,3-a]quinolizin-7-one], the IC50 in test [1] (setting [3]) is 12 µM; in test [2] (setting [4]), 1 µM. Moreover, the Emax in test [1] (Homo sapiens) was 25%; in test [2] (setting [5]), 35%.

On to `CCOC1CCN(C(=O)c2cc(-c3ccccc3)c(=O)n3ccc4ccsc4c23)C1` (stereo not shown) [Compound 9, 10-(3-Ethoxy-pyrrolidine-1-carbonyl)-8-phenyl-thieno[2,3-a]quinolizin-7-one], for which the figures for the concentration for half-maximal inhibition (IC50) in test [1] (setting [3]) and in test [2] (setting [4]) were 40 µM and 5 µM, respectively. Further, the Emax came out at 50% in test [1] (Homo sapiens) and 35% in test [2] (setting [5]).

For `CCCOC1CCN(C(=O)c2cc(-c3ccccc3)c(=O)n3ccc4ccsc4c23)C1` (stereo not shown) [Compound 10, 8-Phenyl-10-(3-propoxy-pyrrolidine-1-carbonyl)-thieno[2,3-a]-quinolizin-7-one], the IC50 in test [1] (setting [3]) worked out at 7 µM; in test [2] (setting [4]), 6.6 µM. Also, the Emax in test [1] (Homo sapiens) and in test [2] (setting [5]) was 50% in each case.

Compound `CC(=O)OC[C@H]1CCCN1C(=O)c1cc(-c2ccccc2)c(=O)n2ccc3ccsc3c12` [Compound 12, 1-(7-Oxo-8-phenyl-7H-thieno[2,3-a]quinolizine-10-carbonyl)-pyrrolidin-2-(R)-yl-methyl acetate] came in with an IC50 in test [1] (setting [3]) of 1 µM. In addition, the Emax in test [1] (Homo sapiens) was found to be 50%.

`COC1CCN(C(=O)c2cc(-c3ccccc3)c(=O)n3ccc4ccsc4c23)CC1` [Compound 13, 10-(4-Methoxy-piperidine-1-carbonyl)-8-phenyl-thieno[2,3-a]-quinolizin-7-one]: the IC50 in test [1] (setting [3]) amounted to 4 µM; in test [2] (setting [4]), 5 µM. The Emax in test [1] (Homo sapiens) stood at 80%; in test [2] (setting [5]), 30%.

Turning to `COC1CCCN(C(=O)c2cc(-c3ccccc3)c(=O)n3ccc4ccsc4c23)C1` (stereo not shown) [Compound 14, 10-(3-Methoxy-piperidine-1-carbonyl)-8-phenyl-thieno[2,3-a]-quinolizine-7-on], the IC50 in test [1] (setting [3]) was determined as 8 µM; in test [2] (setting [4]), 2.3 µM. Moreover, the results for the Emax in test [1] (Homo sapiens) and in test [2] (setting [5]) were 70% and 50%, respectively.

Turning to `CCOC(=O)CN1CCN(C(=O)c2cc(-c3ccccc3)c(=O)n3ccc4ccsc4c23)CC1` [Compound 16, Ethyl [4-(7-oxo-8-phenyl-7H-thieno[2,3-a]quinolizine-10-carbonyl)-piperazin-1-yl]-acetate methanesulphonate], the IC50 came out at 6 µM in test [1] (setting [3]) and 3 µM in test [2] (setting [4]). Besides, the Emax is 70% in test [1] (Homo sapiens) and 30% in test [2] (setting [5]).

Consider `COCCCN(C)C(=O)c1cc(-c2ccccc2)c(=O)n2ccc3ccsc3c12` [Compound 18, 7-Oxo-8-phenyl-7H-thieno[2,3-a]quinolizine-10-carboxylic acid (3-methoxy-propyl)-methyl-amide], for which the IC50 in test [1] (setting [3]) was 7 µM; in test [2] (setting [4]) it was 4 µM. The results for the Emax in test [1] (Homo sapiens) and in test [2] (setting [5]) were 40% and 30%, respectively.

With `COCCN(C)C(=O)c1cc(-c2ccccc2)c(=O)n2ccc3ccsc3c12` [Compound 19, 7-Oxo-8-phenyl-7H-thieno[2,3-a]quinolizine-10-carboxylic acid (2-methoxy-ethyl)-methyl-amide], the IC50 in test [1] (setting [3]) is 20 µM. The Emax in test [1] (Homo sapiens) was 100%.

With `CCN(CCOC)C(=O)c1cc(-c2ccccc2)c(=O)n2ccc3ccsc3c12` [Compound 20, 7-Oxo-8-phenyl-7H-thieno[2,3-a]quinolizine-10-carboxylic acid (2-methoxy-ethyl)-ethyl-amide], the IC50 worked out at 9 µM in test [1] (setting [3]) and 15 µM in test [2] (setting [4]). Also, the Emax in test [1] (Homo sapiens) stood at 70%; in test [2] (setting [5]), 30%.

With `CCN(CCO)C(=O)c1cc(-c2ccccc2)c(=O)n2ccc3ccsc3c12` [Compound 21, 7-Oxo-8-phenyl-7H-thieno[2,3-a]quinolizine-10-carboxylic acid (2-hydroxy-ethyl)-ethyl-amide], in test [1] (setting [3]), the IC50 came out at 40 µM. Also, the Emax in test [1] (Homo sapiens) is 100%.

As to `COCCN(CCOC)C(=O)c1cc(-c2ccccc2)c(=O)n2ccc3ccsc3c12` [Compound 22, 7-Oxo-8-phenyl-7H-thieno[2,3-a]quinolizine-10-carboxylic acid bis-(2-methoxy-ethyl)-amide], the values for the IC50 in test [1] (setting [3]) and in test [2] (setting [4]) were 2.5 µM and 2 µM, respectively. The Emax in test [1] (Homo sapiens) and in test [2] (setting [5]) was 80% throughout.

Regarding `COCCN(C(=O)c1cc(-c2ccccc2)c(=O)n2ccc3ccsc3c12)c1ccccc1` [Compound 23, 7-Oxo-8-phenyl-7H-thieno[2,3-a]quinolizine-10-carboxylic acid (2-methoxy-ethyl)phenyl-amide], the half-inhibitory concentration (IC50) in test [1] (setting [3]) was 3.4 µM; in test [2] (setting [4]), 6.7 µM. Also, the Emax in test [1] (Homo sapiens) and in test [2] (setting [5]) was 100% throughout.

`CN(CC1CCCO1)C(=O)c1cc(-c2ccccc2)c(=O)n2ccc3ccsc3c12` (stereo not shown) [Compound 24, 7-Oxo-8-phenyl-7H-thieno[2,3-a]quinolizine-10-carboxylic acid methyl-(tetrahydrofuran-2-yl-methyl)-amide]: the IC50 in test [1] (setting [3]) is 10 µM; in test [2] (setting [4]), 7 µM. Further, the Emax in test [1] (Homo sapiens) stood at 60%; in test [2] (setting [5]), 40%.

Consider `COC1CCCCC1N(C)C(=O)c1cc(-c2ccccc2)c(=O)n2ccc3ccsc3c12` (stereo not shown) [Compound 26, 7-Oxo-8-phenyl-7H-thieno[2,3-a]quinolizine-10-(2-methoxycyclohexyl)-methyl-amide], for which the results for the IC50 in test [1] (setting [3]) and in test [2] (setting [4]) were 1.2 µM and 5 µM, respectively. Moreover, the figures for the Emax in test [1] (Homo sapiens) and in test [2] (setting [5]) were 100% and 80%, respectively.

The values are drawn from patent publication US5869500A, “Pyridone compounds useful in treating Alzheimer's disease” (Hoffmann-La Roche Inc., priority 1996, dated 1999).
